From patent US11857618B2 (priority 2020, dated 2024) come the findings set out here.

The experiment has as its system phosphorylation of IRF3 in HeLa cells. Type of experiment: cell-based.

The structures appear in SMILES notation.

On to `Nc1nc(=O)c2ncn([C@@H]3O[C@@H]4COP(=O)(O)O[C@H]5[C@@H](O)[C@H](n6cnc7c(N)ncnc76)O[C@@H]5COP(=O)(O)O[C@@H]3[C@@H]4O)c2[nH]1` [cGAMP, 2′,3′-cGAMP (cyclic [G(2′,5′)pA(3′,5′)p])], for which the “pIRF3 levels (band normalized to actin) as compared to untreated control” value is reported as “up to 3 fold”.
